Measurements: patent publication US20110091945A1, “METHODS OF INCREASING BIOMASS PRODUCTIVITY, LIPID INDUCTION, AND CONTROLLING METABOLITES IN ALGAE FOR PRODUCTION OF BIOFUELS USING BIOCHEMICAL STIMULANTS” (priority 2009, published 2011)
Where “and” joins values, the source holds several entries; their conditions need not be identical. Identical values can stand only once. Like-named read-outs stand apart in the source and are kept apart here.

Columns and labels:
Chlorogloea fritschii = details: cited from earlier work
algae = details: applied alone at half solubility in water (75 mg L^−1); cited from earlier work
Chlorella sorokiniana [1] = assay: Malathion growth study: chlorophyll fluorescence kinetics by PAM; assay type: cell-based, Chlorella sorokiniana (UTEX 2805); details: day 12; for Fv/Fm (maximum photosynthetic efficiency of PSII): control 0.672
Experimental: A 2% neutral lipid corn standard supplied by Ankom was used as an analytical standard. Carbon, hydrogen, nitrogen, and sulfur percentages in the biomass were estimated using a LECO CHNS932 elemental analyzer. • Chlorophyll fluorescence kinetics by PAM: The Pulse-Amplitude-Modulation Fluorometer (Mini-PAM, WALZ GmBH, Effeltrich, Germany) used for chlorophyll a fluorescence measurements were performed in real-time using the mini-PAM's internal halogen light as the actinic light source for fluorescence measurements of maximum photosynthetic yield, effective photosynthetic yield (PSII), electron transfer rate (ETR), photosynthetic quenching (qP) and non photochemical quenching (NPQ). The algal samples were dark adapted for one hour prior to the analysis. A small quantity (2.5 mL) of dark adopted sample in a 10 mm path length cuvette was placed in a dark chamber. The PAM fluorometer was connected to the sample via a fiber optic bundle. After stabilization of the auto fluorescence, the probing light beam was turned on and the baseline fluorescence (Fo) was recorded. A single saturating flash (1 s, 8,000 μmol m^−2 s^−1) was then applied to reach maximal fluorescence (Fm). The maximum photosynthetic efficiency of PSII was estimated as in the following equation for the dark adopted culture:
The induction kinetics were initiated by turning on the actinic light source (100 μmol m^−2 s^−1). During the induction curve under actinic light (AL) exposure, saturating light pulses (1 s; 8,000 μmol m^−2 s^−1) were given every 20 seconds to determine the effective quantum yield (Φ PSII), electron transfer rates (ETR), photochemical (qP) and non-photochemical (NPQ) quenching. The qP value was determined by the PAM data analysis software, which uses Fo as opposed to Fo′ in the equation providing a estimate of qP rather than an absolute measurement using far-red light exposure. These tests were done in duplicates.
(§1) • Test strain: Chlorella sorokiniana (UTEX 2805) was obtained from UTEX Culture Collections and maintained in BG11 medium (Stanier et al., (1971) Bacteria Rev. 35: 171-205, incorporated herein in its entirety). The pH of culture medium was adjusted to 7.5±0.2 before inoculation and the alga was maintained in a temperature controlled growth chamber at 25±1° C. and 100±10 μmol m^−2 s^−1 light intensity with 12/12 h L/D cycle provided by cool white fluorescent (6500 K) T-8 bulbs. • Pesticide: A twelve day time-scale growth study was conducted to evaluate the effect of pesticide toxicity on algal growth and metabolism. The pesticide malathion (Spectracide, 50% v/v) was used and added to fresh BG11 medium to obtain final concentrations of 70, 140, 280 and 560 mg of malathion L^−1 for the treatments. […] After sterilization, C. sorokiniana was added as inoculum to obtain an initial biomass concentration of 0.075 g L^−1 in all the treatments in triplicates. The cultures were incubated in the growth chamber as explained above. For each sampling period, three randomly chosen flasks of each treatment were removed and then refrigerated at 4° C. until further analysis.

Chlorella sorokiniana [2] = assay: Malathion twelve day growth study: biomass and growth rates; assay type: cell-based, Chlorella sorokiniana (UTEX 2805)
Experimental: • Analysis of growth parameters: Chlorophyll a was estimated following the method of Porra et al., (1989) Biochem. Biophys. Acta 975, 384-394. Biomass estimations were performed by filtering the cultures through pre-dried and weighed Whatman GF/C glass fiber filters (4.7 cm diameter; 1.2 μm pore size). After washing with 0.65 M ammonium formate, filters were then dried at 60° C. overnight and cooled in a desiccant pouch before re-weighing. Specific growth rates, divisions per day, and generation times were estimated based upon biomass data for days 6 to 9 and days 9 to 12 using the following equations:
Specific growth rate (μ, d^−1)=ln(N2/N1)/(t2−t1)
Divisions per day (Div.day^−1)=μ/ln2
Generation time (d)=1/Div.day^−1
Where N1 and N2=biomass at time 1 (t1) and time 2 (t2), respectively.
as §1

Chlorella pyrenoidosa = details: 100 mg of malathion L^−1; cited from earlier work
Anabaena = details: cited from earlier work; for inhibition: 500 mg malathion L^−1
Nostoc calcicola = details: cited from earlier work
[3] = T1, 70 mg malathion L^−1, day 6 to 9
[4] = T1, 70 mg malathion L^−1, day 9 to 12
[5] = T2, 140 mg malathion L^−1, day 6 to 9
[6] = T2, 140 mg malathion L^−1, day 9 to 12

In the case of CCOC(=O)CC(SP(=S)(OC)OC)C(=O)OCC (centres unmarked) [malathion, 2-(dimethoxyphosphinothioylthio)butanedioic acid diethyl ester], the “concentration that permanently suppressed the growth” value (Chlorogloea fritschii) is given as 200 mg/L, the “toxicity to algae, in words” value (algae) is given as “toxic to algae” and the “effective photosynthetic yield, higher over the control” value (Chlorella sorokiniana [1]; 70 mg malathion L^−1) is given as “about 1.2 times”. For the same compound, the “electron transfer rate, higher over the control” value (Chlorella sorokiniana [1]; 70 mg malathion L^−1) was “about 1.2 times”, the “non-photochemical quenching (NPQ) versus control, in words” value (Chlorella sorokiniana [1]; 70 mg malathion L^−1) was “comparable with the control” and the “photochemical quenching, higher over the control” value (Chlorella sorokiniana [1]; 70 mg malathion L^−1) was “about 1.2 times”. The “Fv/Fm (maximum photosynthetic efficiency of PSII)” value (Chlorella sorokiniana [1]; 70 mg malathion L^−1) was 0.671, the “effective photosynthetic yield, higher over the control” value (Chlorella sorokiniana [1]; 140 mg malathion L^−1) was “about 1.2 times” and the “electron transfer rate, higher over the control” value (Chlorella sorokiniana [1]; 140 mg malathion L^−1) was “about 1.2 times”. For the same compound, the “non-photochemical quenching (NPQ), less than the control” value (Chlorella sorokiniana [1]; 140 mg malathion L^−1) was 18%, the “photochemical quenching, higher over the control” value (Chlorella sorokiniana [1]; 140 mg malathion L^−1) was “about 1.2 times” and the “Fv/Fm (maximum photosynthetic efficiency of PSII)” value (Chlorella sorokiniana [1]; 140 mg malathion L^−1) was 0.641. The “malathion concentration the alga can withstand / tolerated” value (Chlorella sorokiniana [2]) was “up to 140 mg L^−1”, the “time within which the alga could metabolize the pesticide and overcome the stress” value (Chlorella sorokiniana [2]; 70 mg malathion L^−1) was ≤ 6 days and the inhibition in biomass (Chlorella sorokiniana [2]; 70 mg malathion L^−1, day 3) was 25%. It also gave an inhibition in biomass (Chlorella sorokiniana [2]; 70 mg malathion L^−1, day 6) of 37%, an inhibition in biomass (Chlorella sorokiniana [2]; 70 mg malathion L^−1, day 9) of 35% and an inhibition in biomass (Chlorella sorokiniana [2]; 70 mg malathion L^−1, day 12) of 18%. For the same compound, the “time within which the alga could metabolize the pesticide and overcome the stress” value (Chlorella sorokiniana [2]; 140 mg malathion L^−1) was ≤ 9 days, the inhibition of biomass (Chlorella sorokiniana [2]; 140 mg malathion L^−1, day 3) was 35% and the inhibition of biomass (Chlorella sorokiniana [2]; 140 mg malathion L^−1, day 6) was 60%. The inhibition of biomass (Chlorella sorokiniana [2]; 140 mg malathion L^−1, day 9) was 68%, the inhibition of biomass (Chlorella sorokiniana [2]; 140 mg malathion L^−1, day 12) was 49% and the “effect on growth of the alga, in words” value (Chlorella sorokiniana [2]; 270 mg malathion L^−1) was “lethal”. For the same compound, the “effect on growth of the alga, in words” value (Chlorella sorokiniana [2]; 280 mg malathion L^−1 (T3)) was “lethal”, the inhibition of biomass (Chlorella sorokiniana [2]; 280 mg malathion L^−1, day 3) was 48% and the inhibition of biomass (Chlorella sorokiniana [2]; 280 mg malathion L^−1, day 6) was 78%. The inhibition of biomass (Chlorella sorokiniana [2]; 280 mg malathion L^−1, day 9) was 89%, the inhibition of biomass (Chlorella sorokiniana [2]; 280 mg malathion L^−1, day 12) was 100% and the “effect on growth of the alga, in words” value (Chlorella sorokiniana [2]; 540 mg malathion L^−1) was “lethal”. For the same compound, the “effect on growth of the alga, in words” value (Chlorella sorokiniana [2]; 560 mg malathion L^−1 (T4)) was “lethal effects”, the Divisions per day (Chlorella sorokiniana [2]; [3]) was 0.23 and the Generation time (Chlorella sorokiniana [2]; [3]) was 4.4 days. The “Increase in biomass production” value (Chlorella sorokiniana [2]; [3]) was 1.61 times, the “Specific growth rate (μ)” value (Chlorella sorokiniana [2]; [3]) was 0.16 day⁻¹ and the “Δ Biomass” value (Chlorella sorokiniana [2]; [3]) was 0.103 g/L. For the same compound, the Divisions per day (Chlorella sorokiniana [2]; [4]) was 0.27, the Generation time (Chlorella sorokiniana [2]; [4]) was 3.7 days and the “Increase in biomass production” value (Chlorella sorokiniana [2]; [4]) was 1.8 times and 1.76 times. The “Specific growth rate (μ)” value (Chlorella sorokiniana [2]; [4]) was 0.19 day⁻¹, the “Δ Biomass” value (Chlorella sorokiniana [2]; [4]) was 0.206 g/L and the Divisions per day (Chlorella sorokiniana [2]; [5]) was 0.12. The Generation time (Chlorella sorokiniana [2]; [5]) was 8.7 days, the “Increase in biomass production” value (Chlorella sorokiniana [2]; [5]) was 1.27 times and the “Specific growth rate (μ)” value (Chlorella sorokiniana [2]; [5]) was 0.08 day⁻¹. The “Δ Biomass” value (Chlorella sorokiniana [2]; [5]) was 0.029 g/L, the Divisions per day (Chlorella sorokiniana [2]; [6]) was 0.38 and the Generation time (Chlorella sorokiniana [2]; [6]) was 2.6 days. For the same compound, the “Increase in biomass production” value (Chlorella sorokiniana [2]; [6]) was 2.2 times and 2.20 times, the “Specific growth rate (μ)” value (Chlorella sorokiniana [2]; [6]) was 0.26 day⁻¹ and the “Δ Biomass” value (Chlorella sorokiniana [2]; [6]) was 0.163 g/L. The “effect on growth, in words” value (Chlorella pyrenoidosa) was “very little effect on the growth”, the “resistance to malathion, in words” value (Anabaena; 500 mg L^−1) was “highly resistant” and the inhibition (Anabaena; day 5) was 64%. The inhibition (Anabaena; day 30) was 15% and the “concentration above which growth was reduced” value (Nostoc calcicola) was “above 500 mg L^−1”.
